From patent US7758886B2, “Pharmaceutical aerosol composition” (Pari GmbH, priority 2003, dated 2010) come the findings set out here.

Values after ≈ are worked out from the molar mass of the structure shown.

Series [1] is described as follows: Colloidal solubilization of corticosteroid with non-ionic surfactant and lecithin (Lipoid S 100). The settings on record: for solubility: pH 4.5, aqueous with cosolvent or surfactant or cyclodextrin. It counts as physicochemical. The protocol:
In analogy to example 2, colloidal solutions of budesonide were prepared using polysorbate 80 as non-ionic surfactant component (instead of tyloxapol) and lecithin of the commercial grade, Lipoid S 100, as phospholipid component. Citric acid and sodium citrate were used as buffer system to adjust the pH to 4.5. Sodium chloride (0.846% w/w) was used as osmotic excipient. Disodium edetate (0.01% w/w) was incorporated as stabilizer preventing oxidation.
The taste of the samples was acceptable. The average diameter of the colloidal structures ranged from about 40 to about 50 nm, with polydispersity indices of 0.2 to 0.3. The colloidal solution with the lowest concentration of the non-ionic surfactant and phospholipid component was also investigated by small angle X-ray scattering, which indicated the presence of colloidal structures which were probably in the form of unilamellar liposomes.
In analogy to example 9, colloidal solutions of budesonide were prepared using vitamin E TPGS as non-ionic surfactant component and lecithin of the commercial grade, Lipoid S 100, as phospholipid component. The other excipients and their content remained the same as in example 9.
The taste of the samples was acceptable. The particles size of the colloidal structures was about 50 to 55 nm, with polydispersity indices of 0.2 to 0.3.
In analogy to example 9, colloidal solutions of budesonide were prepared using both vitamin E TPGS and polysorbate 80 in combination as non-ionic surfactant component and lecithin of the commercial grade, Lipoid S 100, as phospholipid component. The other excipients and their content remained the same as in example 9.
In analogy to example 9, colloidal solutions of budesonide were prepared using macrogol-15-hydroxystearate as non-ionic surfactant component and lecithin of the commercial grade, Lipoid S 100, as phospholipid component. The other excipients and their content remained the same as in example 9.
In analogy to example 9, colloidal solutions of were prepared using polysorbate 80 as non-ionic surfactant component and lecithin of the commercial grade, Lipoid S 100, as phospholipid component. However, fluticasone propionate was used instead of budesonide as poorly water soluble active agent. The other excipients and their content remained the same as in example 9.

Series [2] is described as follows: Saturation solubility of budesonide in buffered aqueous tyloxapol / DMPC solutions (0.22 μm filtrate). It counts as physicochemical. The conditions noted are these: for solubility: buffered aqueous tyloxapol/DMPC solution, aqueous with cosolvent or surfactant or cyclodextrin, thermodynamic from solid. On the procedure:
Buffered aqueous solutions of tyloxapol, DMPC and tyloxapol in a mixture with DMPC were prepared. The saturation solubility of budesonide in these solutions was measured by adding an excess of budesonide and treating the sample with heat and ultrasound and subsequently allowing it to stand for equilibration. The equilibrated samples were filtered through a membrane filter with a poor width of 0.22 μm and the content of budesonide in the filtrate was determined.

Take `CCC(=O)O[C@]1(C(=O)SCF)[C@H](C)C[C@H]2[C@@H]3C[C@H](F)C4=CC(=O)C=C[C@]4(C)[C@@]3(F)[C@@H](O)C[C@@]21C` [Fluticasone prop., fluticasone propionate]: the Fluticasone prop. solubilized in series [1] (Polysorbate 80 0.10 wt.%, Lipoid S100 1.0 wt.%) worked out at 0.07 mg/mL. Moreover, the solubility in series [1] (Polysorbate 80 0.50 wt.%, Lipoid S100 3.0 wt.%, read-out: Fluticasone prop. solubilized) turned out to be 180 µg/mL.
As to `CCCC1O[C@@H]2C[C@H]3[C@@H]4CCC5=CC(=O)C=C[C@]5(C)[C@H]4[C@@H](O)C[C@]3(C)[C@]2(C(=O)CO)O1` (stereo partly shown) [Budesonide, budesonide], the solubility in series [2] (Tyloxapol 0 wt %, DMPC 1 wt %) amounted to 20 µg/mL (≈ 46.5 µM); in series [2] (Tyloxapol 1 wt %, DMPC 0.5 wt %), 268 µg/mL (≈ 622 µM); in series [2] (Tyloxapol 1.5 wt %, DMPC 0 wt %), 204 µg/mL (≈ 474 µM); in series [1] (Polysorbate 80 0.10 wt.%, Lipoid S100 1.0 wt.%, pH 4.5, read-out: Budesonide solubilized), 360 µg/mL; in series [1] (Polysorbate 80 0.15 wt.%, Lipoid S100 1.5 wt.%, pH 4.5, read-out: Budesonide solubilized), 430 µg/mL; in series [1] (Polysorbate 80 0.25 wt.%, Lipoid S100 1.5 wt.%, pH 4.5, read-out: Budesonide solubilized), 470 µg/mL. The solubility in series [1] (Polysorbate 80 0.40 wt.%, Lipoid S100 1.5 wt.%, pH 4.5, read-out: Budesonide solubilized) was found to be 500 µg/mL; in series [1] (Polysorbate 80 0.50 wt.%, Lipoid S100 2.0 wt.%, pH 4.5, read-out: Budesonide solubilized), 830 µg/mL; in series [1] (Polysorbate 80 0.50 wt.%, Lipoid S100 3.0 wt.%, pH 4.5, read-out: Budesonide solubilized), 1090 µg/mL; in series [1] (Solutrol HS 15 0.10 wt.%, Lipoid S100 1.5 wt.%, read-out: Budesonide solubilized), 430 µg/mL; in series [1] (Solutrol HS 15 0.25 wt.%, Lipoid S100 1.5 wt.%, read-out: Budesonide solubilized), 470 µg/mL; in series [1] (Solutrol HS 15 0.50 wt.%, Lipoid S100 1.5 wt.%, read-out: Budesonide solubilized), 480 µg/mL. In addition, the solubility in series [1] (Vitamin E TPGS 0.10 wt.%, Lipoid S100 1.0 wt.%, read-out: Budesonide solubilized) was 370 µg/mL; in series [1] (Vitamin E TPGS 0.10 wt.%, Lipoid S100 1.5 wt.%, read-out: Budesonide solubilized), 440 µg/mL; in series [1] (Vitamin E TPGS 0.25 wt.%, Lipoid S100 1.5 wt.%, read-out: Budesonide solubilized), 460 µg/mL; in series [1] (Vitamin E TPGS 0.50 wt.%, Lipoid S100 1.5 wt.%, read-out: Budesonide solubilized), 480 µg/mL; in series [1] (Vitamin E TPGS 0.50 wt.%, Lipoid S100 2.0 wt.%, read-out: Budesonide solubilized), 800 µg/mL; in series [1] (vitamin E TPGS 0.04 wt.-%, polysorbate 80 0.06 wt.-%, lecithin 1.0 wt.-%, read-out: Budesonide colloidally solubilized concentration) it was 380 µg/mL. The solubility in series [1] (vitamin E TPGS 0.2 wt.-%, polysorbate 80 0.3 wt.-%, lecithin 3.0 wt.-%, read-out: Budesonide colloidally solubilized concentration) stood at 950 µg/mL. In series [2] (on further increasing the DMPC content), the “Saturation concentration of budesonide in DMPC solutions” value was “could not be increased”.
